Legend:
Assay type in all cases: cell-based
[1] = target: T1, TRH (thyrotropin releasing hormone) receptor (TRHR) (Homo sapiens, UniProt P34981); assay: luciferase assay system, ghrelin receptor family selectivity; conditions: compared with intrinsic ligand, FIG. 74
T1 construct: expressed in transfected cells
T1 sequence (P34981 1-398): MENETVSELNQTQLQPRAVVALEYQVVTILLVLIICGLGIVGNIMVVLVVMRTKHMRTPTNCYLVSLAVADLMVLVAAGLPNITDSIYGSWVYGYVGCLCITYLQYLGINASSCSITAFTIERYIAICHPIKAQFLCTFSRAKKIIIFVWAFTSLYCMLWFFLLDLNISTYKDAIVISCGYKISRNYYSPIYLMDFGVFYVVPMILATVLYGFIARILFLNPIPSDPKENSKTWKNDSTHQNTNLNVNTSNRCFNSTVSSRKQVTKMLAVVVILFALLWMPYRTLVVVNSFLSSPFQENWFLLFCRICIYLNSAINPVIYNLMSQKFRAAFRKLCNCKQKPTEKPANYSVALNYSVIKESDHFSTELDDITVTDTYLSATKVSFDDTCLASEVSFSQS
Method: (§1) In addition, through the activity test of the HKFY derivatives for similar receptors to GPR39, ghrelin receptor family (ghrelin receptor (GHSR), motilin receptor (MTLR), neurotensin receptor (NTSR1 & NTSR2), neuromedin U receptor (NMU1 & NMU2), TRH (thyrotropin releasing hormone) receptor (TRHR)), the selectivity and specificity for the GPR39 receptor were confirmed.
(§2) Specifically, the degree of activity between the intrinsic ligand and HKFY-34 for each receptor was analyzed using a luciferase assay system (FIG. 74).

ghrelin receptor (GHSR) = target: T2, ghrelin receptor (GHSR) (Homo sapiens, UniProt Q92847); assay: as above; conditions: compared with intrinsic ligand, FIG. 74
T2 construct: expressed in transfected cells
Method: as §1, §2

motilin receptor (MTLR) = target: T3, motilin receptor (MTLR) (Homo sapiens, UniProt O43193); assay: as above; conditions: compared with intrinsic ligand, FIG. 74
T3 construct: expressed in transfected cells
Method: as §1, §2

[2] = target: T4, neuromedin U receptor (NMU1) (Homo sapiens, UniProt Q9HB89); assay: as above; conditions: compared with intrinsic ligand, FIG. 74
T4 construct: expressed in transfected cells
T4 sequence (Q9HB89 1-426): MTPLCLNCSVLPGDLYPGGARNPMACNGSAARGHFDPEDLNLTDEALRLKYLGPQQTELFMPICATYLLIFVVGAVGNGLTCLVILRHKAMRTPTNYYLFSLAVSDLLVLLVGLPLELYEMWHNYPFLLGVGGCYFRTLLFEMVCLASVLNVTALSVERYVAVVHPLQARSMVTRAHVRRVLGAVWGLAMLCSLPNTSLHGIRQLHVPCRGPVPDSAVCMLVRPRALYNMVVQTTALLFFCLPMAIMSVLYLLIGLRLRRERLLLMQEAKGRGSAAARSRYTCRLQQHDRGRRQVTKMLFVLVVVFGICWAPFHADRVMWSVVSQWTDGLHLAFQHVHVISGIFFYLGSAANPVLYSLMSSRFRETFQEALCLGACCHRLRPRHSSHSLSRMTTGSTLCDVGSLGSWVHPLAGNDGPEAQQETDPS
Method: as §1, §2

[3] = target: T5, neuromedin U receptor (NMU2) (Homo sapiens, UniProt Q9GZQ4); assay: as above; conditions: compared with intrinsic ligand, FIG. 74
T5 construct: expressed in transfected cells
Method: as §1, §2

[4] = target: T6, neurotensin receptor (NTSR1) (Homo sapiens, UniProt P30989); assay: as above; conditions: compared with intrinsic ligand, FIG. 74
T6 construct: expressed in transfected cells
Method: as §1, §2

[5] = target: T7, neurotensin receptor (NTSR2) (Homo sapiens, UniProt O95665); assay: as above; conditions: compared with intrinsic ligand, FIG. 74
T7 construct: expressed in transfected cells
Method: as §1, §2

HT-29 cells [6] = assay: cell proliferation of HT-29 intestinal epithelial cells (Cellvia kit, BrdU kit); conditions: different concentrations, 24, 48 and 72 hours, FIG. 75
Method: It is known from studies using GPR39 deficient mice that GPR39 is involved in the growth and differentiation of intestinal tissue cells (Phil. Trans. R. Soc. B., 2016, 371:20150420). Therefore, in order to confirm the effect of HKFY-34 on the growth of intestinal tissue cells, the degree of cell proliferation by HKFY-34 was measured using HT-29 cells (Korea Cell Line Bank), which are intestinal epithelial cells.
Specifically, HT-29 cells were cultured in a 96 well plate and then treated with HKFY-34 at different concentrations for 24, 48, and 72 hours. The cell proliferation of the cultured cells was measured using a Cellvia kit (AB frontier) and a BrdU cell proliferation kit (abcam).

AMPK = assay: phosphorylation of AMPK in HT-29 cells, Western blot
Source text: It is known that tight junctions are mediated by a signaling mechanism due to phosphorylation of AMPK protein. Therefore, in order to confirm whether AMPK is involved in the increase in tight junctions by HKFY-34, the expression of p-AMPK in the cells was confirmed using HT-29 cells (FIGS. 79 and 80).
In addition, when treated with HKFY-34 after pretreatment with an AMPK inhibitor (STO-609), it was confirmed that the expression level of p-AMPK, which was increased due to HKFY-34 treatment, was decreased (FIG. 80).

HT-29 cells [7] = assay: LPS-induced inflammation cell model of inflammatory bowel disease (HT-29), qPCR and ELISA; conditions: HT-29, 1 μg/mL LPS, vs LPS alone
Method: In order to confirm the effect of HKFY-34 on anti-inflammatory action, which is one of the gastrointestinal tract protective function (barrier function) by GPR39, the anti-inflammatory activity of HKFY-34 was evaluated in a cell model of inflammatory bowel disease (IBD).
Specifically, the HT-29 cells were treated with 1 μg/mL LPS to induce inflammation and prepare an inflammatory bowel disease model, and were treated with HKFY-34 at different concentrations. Thereafter, the expression levels of mRNA (FIG. 81) and protein (FIG. 82) of inflammation factors for ulcerative colitis were measured through qPCR and ELISA.

T7 sequence (O95665 whole entry, species assumed): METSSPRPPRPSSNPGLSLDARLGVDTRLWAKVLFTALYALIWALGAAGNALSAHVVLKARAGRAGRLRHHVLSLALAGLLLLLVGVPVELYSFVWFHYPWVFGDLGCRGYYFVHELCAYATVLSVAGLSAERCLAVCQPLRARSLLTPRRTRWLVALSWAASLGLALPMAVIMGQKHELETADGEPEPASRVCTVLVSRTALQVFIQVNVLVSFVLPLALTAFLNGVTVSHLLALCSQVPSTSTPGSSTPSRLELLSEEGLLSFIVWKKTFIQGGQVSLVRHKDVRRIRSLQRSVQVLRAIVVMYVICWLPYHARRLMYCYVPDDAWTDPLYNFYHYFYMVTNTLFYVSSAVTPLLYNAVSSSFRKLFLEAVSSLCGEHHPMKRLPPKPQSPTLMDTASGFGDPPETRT
T5 sequence (Q9GZQ4 whole entry, species assumed): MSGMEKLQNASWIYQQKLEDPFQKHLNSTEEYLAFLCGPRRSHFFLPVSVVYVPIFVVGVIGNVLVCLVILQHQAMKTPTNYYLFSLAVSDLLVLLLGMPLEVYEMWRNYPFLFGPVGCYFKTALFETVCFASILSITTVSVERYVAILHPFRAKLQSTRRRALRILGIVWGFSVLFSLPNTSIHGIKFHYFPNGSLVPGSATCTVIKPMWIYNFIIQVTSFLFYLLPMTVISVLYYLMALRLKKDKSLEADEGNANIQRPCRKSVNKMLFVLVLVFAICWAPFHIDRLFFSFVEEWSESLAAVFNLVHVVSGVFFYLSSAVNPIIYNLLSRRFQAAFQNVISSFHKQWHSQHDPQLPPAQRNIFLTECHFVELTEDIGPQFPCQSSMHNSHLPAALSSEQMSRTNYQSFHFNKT
T2 sequence (Q92847 whole entry, species assumed): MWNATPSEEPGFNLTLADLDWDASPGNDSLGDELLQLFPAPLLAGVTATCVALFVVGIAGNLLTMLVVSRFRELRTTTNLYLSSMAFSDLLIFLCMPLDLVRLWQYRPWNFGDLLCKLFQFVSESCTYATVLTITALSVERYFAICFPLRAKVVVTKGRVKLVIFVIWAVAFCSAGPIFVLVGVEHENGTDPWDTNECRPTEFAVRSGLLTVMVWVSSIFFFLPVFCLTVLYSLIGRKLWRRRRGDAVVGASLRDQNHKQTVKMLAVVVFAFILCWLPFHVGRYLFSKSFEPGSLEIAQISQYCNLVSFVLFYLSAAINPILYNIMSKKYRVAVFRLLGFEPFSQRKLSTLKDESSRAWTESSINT
T6 sequence (P30989 whole entry, species assumed): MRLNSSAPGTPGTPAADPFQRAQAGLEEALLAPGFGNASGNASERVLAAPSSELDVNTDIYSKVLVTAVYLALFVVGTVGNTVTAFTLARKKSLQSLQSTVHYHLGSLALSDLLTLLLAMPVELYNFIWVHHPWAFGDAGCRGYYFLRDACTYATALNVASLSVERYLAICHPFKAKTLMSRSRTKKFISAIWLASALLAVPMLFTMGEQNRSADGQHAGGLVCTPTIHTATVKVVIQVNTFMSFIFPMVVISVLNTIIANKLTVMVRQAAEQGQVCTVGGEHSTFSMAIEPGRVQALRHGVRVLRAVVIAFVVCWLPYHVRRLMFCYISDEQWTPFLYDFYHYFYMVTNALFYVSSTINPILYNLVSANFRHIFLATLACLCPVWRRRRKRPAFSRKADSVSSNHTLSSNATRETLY
T3 sequence (O43193 whole entry, species assumed): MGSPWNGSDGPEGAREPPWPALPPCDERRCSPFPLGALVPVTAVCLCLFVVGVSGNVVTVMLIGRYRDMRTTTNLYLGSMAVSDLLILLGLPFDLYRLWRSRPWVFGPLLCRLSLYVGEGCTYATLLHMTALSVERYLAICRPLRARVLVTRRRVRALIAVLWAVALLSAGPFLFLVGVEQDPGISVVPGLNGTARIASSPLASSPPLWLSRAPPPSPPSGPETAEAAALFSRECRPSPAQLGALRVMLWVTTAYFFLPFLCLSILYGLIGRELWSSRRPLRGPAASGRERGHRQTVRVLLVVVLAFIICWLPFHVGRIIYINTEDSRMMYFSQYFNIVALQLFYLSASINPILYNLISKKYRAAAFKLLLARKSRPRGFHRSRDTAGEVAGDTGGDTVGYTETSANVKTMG

CCCCCCCC(=O)NCCCC[C@H](NC(=O)[C@@H](N)Cc1cn(C(c2ccccc2)c2ccccc2)cn1)C(=O)N[C@H](Cc1ccc(C)cc1)C(=O)N[C@@H](Cc1ccc(O)cc1)C(=O)O [HKFY-34, ((R)-2-((S)-2-((S)-2-amino-3-(1-benzhydryl-1H-imidazol-4-yl)propanamido)-6-octanamidohexanamido)-3-(p-tolyl)propanoyl)-L-tyrosine]
activity for TRHR [1]: very low | activity for GHSR (ghrelin receptor (GHSR)): very low | activity for MTLR (motilin receptor (MTLR)): very low | activity for NMU1 [2]: very low | activity for NMU2 [3]: very low | activity for NTSR1 [4]: very low | activity for NTSR2 [5]: very low | proliferation of HT-29 cells (HT-29 cells [6]): increased by HKFY-34 in a dose-dependent manner | expression of p-AMPK protein (AMPK; HT-29, different concentrations, vs vehicle, FIG. 79): increased by HKFY-34 in a dose-dependent manner | expression level of p-AMPK after pretreatment with AMPK inhibitor (AMPK; HT-29, pretreatment with STO-609 1 μM, vs HKFY-34 treatment, FIG. 80): decreased | secretion level of IL-1β (HT-29 cells [7]; ELISA, FIG. 82): significantly decreased by HKFY-34 treatment in a dose-dependent manner | secretion level of IL-6 (HT-29 cells [7]; ELISA, FIG. 82): significantly decreased by HKFY-34 treatment in a dose-dependent manner | secretion level of IL-8 (HT-29 cells [7]; ELISA, FIG. 82): significantly decreased by HKFY-34 treatment in a dose-dependent manner | secretion level of TNF-α (HT-29 cells [7]; ELISA, FIG. 82): significantly decreased by HKFY-34 treatment in a dose-dependent manner | mRNA expression level of IL-1β (HT-29 cells [7]; qPCR, FIG. 81): significantly decreased by HKFY-34 treatment in a dose-dependent manner | mRNA expression level of IL-6 (HT-29 cells [7]; qPCR, FIG. 81): significantly decreased by HKFY-34 treatment in a dose-dependent manner | mRNA expression level of IL-8 (HT-29 cells [7]; qPCR, FIG. 81): significantly decreased by HKFY-34 treatment in a dose-dependent manner | mRNA expression level of TNF-α (HT-29 cells [7]; qPCR, FIG. 81): significantly decreased by HKFY-34 treatment in a dose-dependent manner

— patent US20250340591A1, “COMPOSITION FOR PREVENTING OR TREATING INFLAMMATORY BOWEL DISEASE CONTAINING NOVEL COMPOUND” (ANYGEN CO., LTD., priority 2021, published 2025)
